This note sets out measurements from ChEMBL document CHEMBL4387741, “Optimization of novel reversible Bruton's tyrosine kinase inhibitors identified using Tethering-fragment-based screens” (Bioorg Med Chem, 2019).

Assay [1] relates to Tyrosine-protein kinase ABL1 (Homo sapiens), P00519 [F317L]. Put plainly: Inhibition of human non-phosphorylated ABL1 F317L mutant (S229 to K512 residues) expressed in mammalian expression system at 1 uM by Kinomescan method relative to control.
For assay [2] the test system is unchanged. Put plainly: Inhibition of human phosphorylated ABL1 F317L mutant (S229 to K512 residues) expressed in mammalian expression system at 1 uM by Kinomescan method relative to control.
Assay [3] has as its target Cyclin-dependent kinase 11B (Homo sapiens) (UniProt P21127). Put plainly: Inhibition of wild-type human partial length CDC2L1 (P353 to G692 residues) expressed in bacterial expression system at 1 uM by Kinomescan method relative to control.
The target in assay [4] is Cyclin-dependent kinase 9 (Homo sapiens) (UniProt P50750). The experiment in a line: Inhibition of wild-type human full length CDK9 (M1 to F372 residues) expressed in bacterial expression system at 1 uM by Kinomescan method relative to control.
Chain of Cyclin-dependent kinase 9 (Homo sapiens) (P50750 whole entry, the tested form may be a part): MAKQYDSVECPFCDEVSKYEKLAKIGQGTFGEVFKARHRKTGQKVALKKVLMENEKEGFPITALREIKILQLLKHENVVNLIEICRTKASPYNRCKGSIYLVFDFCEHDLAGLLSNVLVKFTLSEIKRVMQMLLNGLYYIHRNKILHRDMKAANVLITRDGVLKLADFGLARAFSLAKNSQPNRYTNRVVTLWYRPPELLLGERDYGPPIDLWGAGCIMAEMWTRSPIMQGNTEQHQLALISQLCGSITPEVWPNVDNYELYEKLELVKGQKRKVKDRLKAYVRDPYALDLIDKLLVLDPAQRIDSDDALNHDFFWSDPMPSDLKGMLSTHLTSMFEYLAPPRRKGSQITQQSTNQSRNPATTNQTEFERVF
Assay [5] has as its target Serine/threonine-protein kinase 17A (Homo sapiens) (UniProt Q9UEE5). Put plainly: Inhibition of wild-type human partial length DRAK1 (R32 to E363 residues) expressed in bacterial expression system at 1 uM by Kinomescan method relative to control.
In assay [6] the target is Receptor tyrosine-protein kinase erbB-4 (Homo sapiens) (UniProt Q15303). Put plainly: Inhibition of wild-type human partial length ERBB4 (L690 to K994 residues) expressed in bacterial expression system at 1 uM by Kinomescan method relative to control.
Assay [7] concerns the target Serine/threonine-protein kinase ICK (Homo sapiens) (UniProt Q9UPZ9). The experiment in a line: Inhibition of wild-type human partial length ICK (M1 to P314 residues) expressed in mammalian expression system at 1 uM by Kinomescan method relative to control.
Assay [8] deals with Mitogen-activated protein kinase kinase kinase kinase 4 (Homo sapiens) (UniProt O95819). The experiment in a line: Inhibition of wild-type human partial length MAP4K4 (M1 to R310 residues) expressed in bacterial expression system at 1 uM by Kinomescan method relative to control.
Assay [9] concerns the target Serine/threonine-protein kinase MARK1 (Homo sapiens) (UniProt Q9P0L2). The experiment in a line: Inhibition of wild-type human partial length MARK1 (Q30 to T341 residues) expressed in bacterial expression system at 1 uM by Kinomescan method relative to control.
For assay [10], the target named is Dual specificity mitogen-activated protein kinase kinase 5 (Homo sapiens) (UniProt Q13163). Put plainly: Inhibition of wild-type human partial length MEK5 (L98 to P448 residues) expressed in mammalian expression system at 1 uM by Kinomescan method relative to control.
The target in assay [11] is Myosin light chain kinase family member 4 (Homo sapiens) (UniProt Q86YV6). The experiment in a line: Inhibition of wild-type human partial length MYLK4 (V79 to S380 residues) expressed in bacterial expression system at 1 uM by Kinomescan method relative to control.
Chain of Myosin light chain kinase family member 4 (Homo sapiens) (Q86YV6 whole entry, the tested form may be a part): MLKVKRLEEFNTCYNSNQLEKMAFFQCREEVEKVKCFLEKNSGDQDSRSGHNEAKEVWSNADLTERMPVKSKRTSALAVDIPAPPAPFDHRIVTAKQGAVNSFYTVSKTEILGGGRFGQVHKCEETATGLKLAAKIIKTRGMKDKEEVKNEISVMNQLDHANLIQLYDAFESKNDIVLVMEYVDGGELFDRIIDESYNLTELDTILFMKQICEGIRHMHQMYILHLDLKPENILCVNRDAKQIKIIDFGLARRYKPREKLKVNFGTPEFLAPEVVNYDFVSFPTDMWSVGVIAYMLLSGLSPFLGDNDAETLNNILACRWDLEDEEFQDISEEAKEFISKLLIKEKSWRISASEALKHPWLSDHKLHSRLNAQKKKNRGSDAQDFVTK
Assay [12] concerns the target Mitogen-activated protein kinase kinase kinase 7 (Homo sapiens) (UniProt O43318). Put plainly: Inhibition of wild-type human partial length TAK1 (M1 to Q303 residues) expressed in mammalian expression system at 1 uM by Kinomescan method relative to control.
The target of assay [13] is Serine/threonine-protein kinase tousled-like 2 (Homo sapiens) (UniProt Q86UE8). Put plainly: Inhibition of wild-type human partial length TLK2 (E424 to N749 residues) expressed in bacterial expression system at 1 uM by Kinomescan method relative to control.
In assay [14] the target is Mitogen-activated protein kinase kinase kinase 20 (Homo sapiens) (UniProt Q9NYL2). The experiment in a line: Inhibition of wild-type human partial length ZAK (M1 to L331 residues) expressed in bacterial expression system at 1 uM by Kinomescan method relative to control.
Assay [15] concerns the target Tyrosine-protein kinase BTK (Homo sapiens, UniProt Q06187). The experiment in a line: biochemical.
Description: Reversible inhibition of recombinant full-length N-terminal 6-His-tagged human BTK expressed in baculovirus infected Sf21 insect cells using fluorescent-labeled polyGAT peptide as substrate incubated for 30 mins by TR-FRET assay
Assay [16] addresses Mitogen-activated protein kinase kinase kinase 12 (Homo sapiens) (UniProt Q12852). The experiment in a line: Inhibition of wild-type human full length DLK (M1 to P859 residues) expressed in mammalian expression system at 1 uM by Kinomescan method relative to control.
Assay [17] has as its target Death-associated protein kinase 3 (Homo sapiens) (UniProt O43293). Put plainly: Inhibition of wild-type human partial length DAPK3 (M1 to A277 residues) expressed in bacterial expression system at 10 uM by Kinomescan method relative to control.
The target in assay [18] is Epidermal growth factor receptor (Homo sapiens) (UniProt P00533). Put plainly: Inhibition of wild-type human partial length EGFR (R669 to V1011 residues) expressed in bacterial expression system at 10 uM by Kinomescan method relative to control.
For assay [19], the target named is Tyrosine-protein kinase Fgr (Homo sapiens) (UniProt P09769). Put plainly: Inhibition of wild-type human partial length FGR (L233 to T529 residues) expressed in bacterial expression system at 10 uM by Kinomescan method relative to control.
Chain of Tyrosine-protein kinase Fgr (Homo sapiens) (P09769 2-529 limits assumed): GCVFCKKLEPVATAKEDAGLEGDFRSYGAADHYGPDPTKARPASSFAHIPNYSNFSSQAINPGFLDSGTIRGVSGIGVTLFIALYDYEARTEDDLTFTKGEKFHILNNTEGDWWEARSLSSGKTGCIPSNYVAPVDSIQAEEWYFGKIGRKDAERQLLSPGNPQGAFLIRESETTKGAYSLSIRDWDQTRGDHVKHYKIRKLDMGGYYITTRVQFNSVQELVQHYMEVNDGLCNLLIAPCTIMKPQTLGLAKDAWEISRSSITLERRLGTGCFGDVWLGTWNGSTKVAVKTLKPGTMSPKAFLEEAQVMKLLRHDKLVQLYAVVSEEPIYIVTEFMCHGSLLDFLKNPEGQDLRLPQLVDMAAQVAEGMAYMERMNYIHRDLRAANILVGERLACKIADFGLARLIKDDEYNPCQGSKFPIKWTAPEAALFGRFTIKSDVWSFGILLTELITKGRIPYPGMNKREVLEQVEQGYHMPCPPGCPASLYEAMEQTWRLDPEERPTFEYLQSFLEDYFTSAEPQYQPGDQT
Assay [20] has as its target Tyrosine-protein kinase FRK (Homo sapiens) (UniProt P42685). Put plainly: Inhibition of wild-type human partial length FRK (A215 to F503 residues) expressed in bacterial expression system at 10 uM by Kinomescan method relative to control.
In assay [21] the target is Mitogen-activated protein kinase kinase kinase 3 (Homo sapiens) (UniProt Q99759). Put plainly: Inhibition of wild-type human partial length MAP3K3 (E320 to Y626 residues) expressed in mammalian expression system at 10 uM by Kinomescan method relative to control.
Assay [22] addresses Mitogen-activated protein kinase kinase kinase kinase 2 (Homo sapiens) (UniProt Q12851). Put plainly: Inhibition of wild-type human partial length MAP4K2 (M1 to G318 residues) expressed in mammalian expression system at 10 uM by Kinomescan method relative to control.
Assay [23] addresses Myosin-IIIa (Homo sapiens) (UniProt Q8NEV4). Put plainly: Inhibition of wild-type human partial length MYO3A (M1 to K338 residues) expressed in bacterial expression system at 10 uM by Kinomescan method relative to control.
Assay [24] has as its target Serine/threonine-protein kinase PAK 1 (Homo sapiens) (UniProt Q13153). Put plainly: Inhibition of wild-type human partial length PAK1 (S149 to H545 residues) expressed in bacterial expression system at 10 uM by Kinomescan method relative to control.
In assay [25] the target is Phosphatidylinositol 4,5-bisphosphate 3-kinase catalytic subunit delta isoform (Homo sapiens) (UniProt O00329). Put plainly: Inhibition of wild-type human partial length PIK3CD (R108 to Q1044 residues) expressed in mammalian expression system at 10 uM by Kinomescan method relative to control.
Assay [26] has as its target Serine/threonine-protein kinase 35 (Homo sapiens) (UniProt Q8TDR2). Put plainly: Inhibition of wild-type human partial length STK35 (G182 to A534 residues) expressed in bacterial expression system at 10 uM by Kinomescan method relative to control.
For assay [27], the target named is Mitogen-activated protein kinase kinase kinase 7 (Homo sapiens) (UniProt O43318). The experiment in a line: Inhibition of wild-type human partial length TAK1 (M1 to Q303 residues) expressed in mammalian expression system at 10 uM by Kinomescan method relative to control.
Chain of Mitogen-activated protein kinase kinase kinase 7 (Homo sapiens) (O43318 whole entry, the tested form may be a part): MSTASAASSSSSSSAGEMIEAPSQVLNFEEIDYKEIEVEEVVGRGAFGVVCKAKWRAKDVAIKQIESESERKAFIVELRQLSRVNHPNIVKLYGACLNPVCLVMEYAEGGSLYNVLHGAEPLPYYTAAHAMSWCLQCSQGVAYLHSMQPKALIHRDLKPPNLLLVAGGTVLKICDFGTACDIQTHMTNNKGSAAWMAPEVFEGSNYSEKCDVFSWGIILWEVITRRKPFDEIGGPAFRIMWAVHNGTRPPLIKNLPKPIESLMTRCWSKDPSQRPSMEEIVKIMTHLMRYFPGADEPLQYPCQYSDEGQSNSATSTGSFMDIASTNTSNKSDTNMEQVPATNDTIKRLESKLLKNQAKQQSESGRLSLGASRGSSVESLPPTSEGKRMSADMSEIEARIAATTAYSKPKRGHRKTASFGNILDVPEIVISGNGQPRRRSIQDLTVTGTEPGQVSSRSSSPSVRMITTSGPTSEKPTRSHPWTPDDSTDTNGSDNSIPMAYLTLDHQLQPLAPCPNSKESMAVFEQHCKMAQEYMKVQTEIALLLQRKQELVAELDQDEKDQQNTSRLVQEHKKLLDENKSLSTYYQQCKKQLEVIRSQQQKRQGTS
In assay [28] the target is Tyrosine-protein kinase ZAP-70 (Homo sapiens) (UniProt P43403). The experiment in a line: Inhibition of wild-type human partial length ZAP70 (D20 to G299 residues) expressed in mammalian expression system at 10 uM by Kinomescan method relative to control.

Chain of Tyrosine-protein kinase ABL1 (Homo sapiens), P00519 [F317L] (P00519 whole entry F317L, the tested form may be a part): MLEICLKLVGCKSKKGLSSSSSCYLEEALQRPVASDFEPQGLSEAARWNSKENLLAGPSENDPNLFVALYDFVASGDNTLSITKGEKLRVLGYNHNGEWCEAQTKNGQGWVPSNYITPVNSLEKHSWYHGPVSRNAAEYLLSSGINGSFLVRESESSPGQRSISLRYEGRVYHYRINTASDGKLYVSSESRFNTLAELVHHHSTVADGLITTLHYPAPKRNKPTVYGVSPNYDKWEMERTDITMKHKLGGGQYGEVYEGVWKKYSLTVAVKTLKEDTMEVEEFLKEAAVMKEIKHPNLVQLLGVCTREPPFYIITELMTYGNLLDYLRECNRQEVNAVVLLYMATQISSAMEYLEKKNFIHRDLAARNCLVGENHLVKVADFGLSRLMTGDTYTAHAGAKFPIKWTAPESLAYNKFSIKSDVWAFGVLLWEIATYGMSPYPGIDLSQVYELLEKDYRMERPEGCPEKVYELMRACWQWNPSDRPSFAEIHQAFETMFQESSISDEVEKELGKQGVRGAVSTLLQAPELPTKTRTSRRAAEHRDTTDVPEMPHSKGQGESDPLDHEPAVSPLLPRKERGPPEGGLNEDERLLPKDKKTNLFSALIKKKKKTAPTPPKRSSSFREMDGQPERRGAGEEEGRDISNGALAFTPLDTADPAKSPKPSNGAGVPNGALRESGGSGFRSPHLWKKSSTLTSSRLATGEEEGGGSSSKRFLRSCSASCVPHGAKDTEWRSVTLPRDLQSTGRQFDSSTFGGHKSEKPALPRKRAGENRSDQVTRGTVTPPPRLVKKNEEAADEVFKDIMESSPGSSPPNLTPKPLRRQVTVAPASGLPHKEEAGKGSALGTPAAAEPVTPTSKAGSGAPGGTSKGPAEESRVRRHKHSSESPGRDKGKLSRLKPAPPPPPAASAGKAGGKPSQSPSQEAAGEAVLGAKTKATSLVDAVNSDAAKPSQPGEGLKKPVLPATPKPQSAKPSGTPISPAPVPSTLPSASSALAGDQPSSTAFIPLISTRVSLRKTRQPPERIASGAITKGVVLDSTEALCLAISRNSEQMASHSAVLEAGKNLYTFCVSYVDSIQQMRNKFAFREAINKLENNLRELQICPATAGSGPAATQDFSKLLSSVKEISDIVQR
Chain of Serine/threonine-protein kinase PAK 1 (Homo sapiens) (Q13153 whole entry, the tested form may be a part, canonical isoform): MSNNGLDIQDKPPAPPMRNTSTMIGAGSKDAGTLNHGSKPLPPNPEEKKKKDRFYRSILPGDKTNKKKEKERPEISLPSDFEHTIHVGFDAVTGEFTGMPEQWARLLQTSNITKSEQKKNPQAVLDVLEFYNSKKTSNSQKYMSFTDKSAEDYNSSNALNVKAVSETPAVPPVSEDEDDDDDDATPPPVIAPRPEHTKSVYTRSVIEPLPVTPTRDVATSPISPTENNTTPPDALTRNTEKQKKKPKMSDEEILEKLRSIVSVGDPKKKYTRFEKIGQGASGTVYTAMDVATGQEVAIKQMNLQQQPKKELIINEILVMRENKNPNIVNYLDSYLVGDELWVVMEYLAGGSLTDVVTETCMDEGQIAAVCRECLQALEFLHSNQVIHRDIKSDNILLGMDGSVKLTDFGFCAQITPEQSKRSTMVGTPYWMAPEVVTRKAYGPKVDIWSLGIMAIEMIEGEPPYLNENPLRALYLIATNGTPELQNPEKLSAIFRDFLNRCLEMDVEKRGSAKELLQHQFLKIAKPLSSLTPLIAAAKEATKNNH
Chain of Mitogen-activated protein kinase kinase kinase 12 (Homo sapiens) (Q12852 whole entry, looked up, the tested form may be a part): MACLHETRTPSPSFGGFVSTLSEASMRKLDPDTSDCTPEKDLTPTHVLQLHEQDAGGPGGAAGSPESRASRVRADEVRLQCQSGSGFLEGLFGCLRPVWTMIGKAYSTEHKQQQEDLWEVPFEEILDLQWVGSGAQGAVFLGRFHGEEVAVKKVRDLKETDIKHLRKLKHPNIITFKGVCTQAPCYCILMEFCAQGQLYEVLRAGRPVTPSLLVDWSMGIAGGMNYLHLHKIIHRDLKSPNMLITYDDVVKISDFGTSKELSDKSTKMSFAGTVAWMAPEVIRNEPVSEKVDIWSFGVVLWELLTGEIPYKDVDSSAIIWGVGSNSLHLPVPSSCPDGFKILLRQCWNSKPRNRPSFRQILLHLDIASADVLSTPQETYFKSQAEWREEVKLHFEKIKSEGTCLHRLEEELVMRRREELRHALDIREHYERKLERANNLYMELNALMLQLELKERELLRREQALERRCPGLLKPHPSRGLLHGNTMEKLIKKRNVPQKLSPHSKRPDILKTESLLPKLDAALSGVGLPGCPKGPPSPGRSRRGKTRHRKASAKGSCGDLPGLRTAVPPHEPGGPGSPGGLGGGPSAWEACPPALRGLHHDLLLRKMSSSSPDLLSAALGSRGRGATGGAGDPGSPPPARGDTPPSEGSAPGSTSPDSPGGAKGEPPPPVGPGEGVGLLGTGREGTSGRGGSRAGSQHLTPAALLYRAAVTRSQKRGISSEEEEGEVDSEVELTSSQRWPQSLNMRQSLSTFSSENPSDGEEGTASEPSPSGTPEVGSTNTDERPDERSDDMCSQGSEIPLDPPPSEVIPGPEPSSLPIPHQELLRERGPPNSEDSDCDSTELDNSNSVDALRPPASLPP
Chain of Serine/threonine-protein kinase 35 (Homo sapiens) (Q8TDR2 whole entry, the tested form may be a part): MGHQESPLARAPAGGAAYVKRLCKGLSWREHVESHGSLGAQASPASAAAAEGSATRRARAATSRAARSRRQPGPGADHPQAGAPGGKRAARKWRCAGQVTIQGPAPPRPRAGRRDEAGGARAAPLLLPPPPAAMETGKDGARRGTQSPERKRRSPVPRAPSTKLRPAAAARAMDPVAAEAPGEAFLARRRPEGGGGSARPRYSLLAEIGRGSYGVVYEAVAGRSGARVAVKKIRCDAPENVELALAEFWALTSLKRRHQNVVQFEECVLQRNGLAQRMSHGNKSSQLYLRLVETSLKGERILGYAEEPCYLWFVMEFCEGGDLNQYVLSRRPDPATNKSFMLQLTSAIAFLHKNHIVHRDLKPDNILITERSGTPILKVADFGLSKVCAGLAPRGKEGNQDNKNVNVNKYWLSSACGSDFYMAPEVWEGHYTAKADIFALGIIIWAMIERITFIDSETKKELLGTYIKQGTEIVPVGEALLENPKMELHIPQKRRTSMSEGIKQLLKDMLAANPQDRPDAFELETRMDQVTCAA

One may read the inhibition as the drop in the measured response relative to a control, in per cent. Low readings indicate a weak effect, high ones a strong effect. The IC50 is the midpoint of a concentration-inhibition curve. A high value points to lower potency. `O=C(Nc1cccc([C@@H]2CN(c3ncnc4[nH]ccc34)CCN2CCO)c1)Nc1c(F)cccc1N1CCCC1`: the inhibition in [1] turned out to be 100%; in assay [2], 100%; in assay [3], 100%; in assay [4], 100%; in assay [5] it was 82%; in assay [6] it was 100%. In addition, the inhibition in [7] was found to be 100%; in assay [8] it was 100%; in assay [9] it was 97%; in assay [10] it was 67%; in assay [11], 100%; in assay [12], 97%. The figures for the inhibition in assay [13], in assay [14] and in [16] were 99%, 100% and 79%, respectively. Further, it took 1 nM to reach half-maximal inhibition in assay [15] (IC50).
In the case of `O=C(Nc1cccc([C@H]2CCCN(c3ncnc4[nH]ccc34)C2)c1)Nc1ccccc1N1CCCC1`, the inhibition in [17] was 4.1%; in assay [18], 88%; in [19], 62%; in [20], 96%; in [21] it was 24%; in assay [22], 61%. Further, the inhibition was 52% in assay [23]; 90% in [24]; 99% in assay [25]; 99% in [26]; 24% in assay [27]; 75% in [28].
